Target: T1, glucokinase (GK), residues 12-465 of the human enzyme (Homo sapiens, UniProt P35557)
T1 construct: I.D. No. 1 corresponds to residues 12-465 of glucokinase; made in house; host or cells: E. coli DH10b-Tlr
T1 sequence (P35557 with tags, fused parts or gaps isoform P35557-2): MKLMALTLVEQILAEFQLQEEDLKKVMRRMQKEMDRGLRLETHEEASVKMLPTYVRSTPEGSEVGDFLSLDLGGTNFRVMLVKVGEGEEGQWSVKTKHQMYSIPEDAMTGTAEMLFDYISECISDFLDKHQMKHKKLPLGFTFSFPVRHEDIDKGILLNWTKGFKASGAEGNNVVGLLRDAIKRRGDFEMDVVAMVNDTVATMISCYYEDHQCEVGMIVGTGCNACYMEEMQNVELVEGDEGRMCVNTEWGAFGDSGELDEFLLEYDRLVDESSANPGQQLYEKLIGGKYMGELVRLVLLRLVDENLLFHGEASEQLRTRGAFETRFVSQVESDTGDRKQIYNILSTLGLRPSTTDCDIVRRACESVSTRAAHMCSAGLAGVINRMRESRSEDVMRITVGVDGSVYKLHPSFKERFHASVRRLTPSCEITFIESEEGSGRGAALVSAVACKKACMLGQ
Assay: Enzymatic glucokinase activity assay (KinaseGlo luminescence, ATP consumption)
Assay type: biochemical
Details: 5 μM ATP, 5 mM Glucose; for EC50: GK activation, Kact = concentration giving 50% of the maximal increase in GK activity, read-out: pKact; for Emax: calculated maximal gain in GK enzyme activity at a saturating concentration of the compound, read-out: % ACTmax
Method in brief: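 Activation measured as ATP consumption: residual ATP detected by KinaseGlo luminescence after 60 min at room temperature with 5 μM ATP and 5 mM glucose (Hepes pH 7.2, MgCl2, Brij35, DTT, 2% DMSO). Enzyme was recombinant FLAG-tagged protein from E. coli. Eleven-point twofold series were fitted nonlinearly for pKact and % ACTmax.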

Compound	EC50	Emax
O=C(Nc1nccs1)[C@H](CC1CCCCC1)N1CCN(C(=S)NCc2cccc(F)c2)CC1=O [Example 119, (S)-3-cyclohexyl-2-(4-(3-fluorobenzylcarbamothioyl)-2-oxopiperazin-1-yl)-N-(thiazol-2-yl)propanamide]	794 to 1260 nM	97.1 to 107%
O=C(Nc1nccs1)[C@H](CC1CCCCC1)N1CCN(S(=O)(=O)Cc2ccc(F)cc2)CC1=O [Example 68, (S)-3-cyclohexyl-2-(4-(4-fluorobenzylsulfonyl)-2-oxopiperazin-1-yl)-N-(thiazol-2-yl)propanamide]	794 to 1260 nM	97.1 to 107%
O=C(Nc1nccs1)[C@H](CC1CCCCC1)N1CCN(S(=O)(=O)c2cc(F)ccc2F)CC1=O [Example 184, (S)-3-cyclohexyl-2-(4-(2,5-difluorophenylsulfonyl)-2-oxopiperazin-1-yl)-N-(thiazol-2-yl)propanamide]	≤ 631 nM	108 to 119%
O=C(Nc1nccs1)[C@H](CC1CCCCC1)N1CCN(C(=S)NC2CCCC2)CC1=O [Example 128, (S)-3-cyclohexyl-2-(4-(cyclopentylcarbamothioyl)-2-oxopiperazin-1-yl)-N-(thiazol-2-yl)propanamide]	794 to 1260 nM	97.1 to 107%
O=C(Nc1nccs1)[C@H](CC1CCCCC1)N1CCN(C(=O)Nc2cccc3ccccc23)CC1=O [Example 77, (S)-4-(3-cyclohexyl-1-oxo-1-(thiazol-2-ylamino)propan-2-yl)-N-(naphthalen-1-yl)-3-oxopiperazine-1-carboxamide]	≥ 3160 nM	74.1 to 97%
O=C(Nc1nccs1)[C@H](CC1CCCCC1)N1CCN(S(=O)(=O)c2ccco2)CC1=O [Example 108, (S)-3-cyclohexyl-2-(4-(furan-2-ylsulfonyl)-2-oxopiperazin-1-yl)-N-(thiazol-2-yl)propanamide]	≤ 631 nM	74.1 to 97%
O=C(Nc1nccs1)[C@H](CC1CCCCC1)N1CCN(S(=O)(=O)c2ccccc2F)CC1=O [Example 205, (S)-3-cyclohexyl-2-(4-(2-fluorophenylsulfonyl)-2-oxopiperazin-1-yl)-N-(thiazol-2-yl)propanamide]	≤ 631 nM	≥ 119%
Cc1c(Cl)cccc1S(=O)(=O)N1CCN([C@@H](CC2CCCCC2)C(=O)Nc2nccs2)C(=O)C1 [Example 51, (S)-2-(4-(3-chloro-2-methylphenylsulfonyl)-2-oxopiperazin-1-yl)-3-cyclohexyl-N-(thiazol-2-yl)propanamide]	1580 to 2510 nM	74.1 to 97%
O=C(Nc1nccs1)[C@H](CC1CCCCC1)N1CCN(S(=O)(=O)c2ccc(Oc3ccccn3)cc2)CC1=O [Example 207, (S)-3-cyclohexyl-2-(2-oxo-4-(4-(pyridin-2-yloxy)phenylsulfonyl)piperazin-1-yl)-N-(thiazol-2-yl)propanamide]	≤ 631 nM	74.1 to 97%
O=C(Nc1nccs1)[C@H](CC1CCCCC1)N1CCN(S(=O)(=O)c2ccc(F)c(F)c2)CC1=O [Example 103, (S)-3-cyclohexyl-2-(4-(3,4-difluorophenylsulfonyl)-2-oxopiperazin-1-yl)-N-(thiazol-2-yl)propanamide]	≤ 631 nM	108 to 119%
Cc1nc(C)c(S(=O)(=O)N2CCN([C@@H](CC3CCCCC3)C(=O)Nc3nccs3)C(=O)C2)s1 [Example 54, (S)-3-cyclohexyl-2-(4-(2,4-dimethylthiazol-5-ylsulfonyl)-2-oxopiperazin-1-yl)-N-(thiazol-2-yl)propanamide]	≥ 3160 nM	≥ 119%
O=C(Nc1nccs1)[C@H](CC1CCCCC1)N1CCN(S(=O)(=O)c2cc(Cl)cc(Cl)c2)CC1=O [Example 57, (S)-3-cyclohexyl-2-(4-(3,5-dichlorophenylsulfonyl)-2-oxopiperazin-1-yl)-N-(thiazol-2-yl)propanamide]	≤ 631 nM	74.1 to 97%
O=C(Nc1nccs1)[C@H](CC1CCCCC1)N1CCN(S(=O)(=O)Cc2ccccc2)CC1=O [Example 41, (S)-2-(4-(benzylsulfonyl)-2-oxopiperazin-1-yl)-3-cyclohexyl-N-(thiazol-2-yl)propanamide]	≤ 631 nM	97.1 to 107%
Cc1nn(C)c(Cl)c1S(=O)(=O)N1CCN([C@@H](CC2CCCCC2)C(=O)Nc2nccs2)C(=O)C1 [Example 47, (S)-2-(4-(5-chloro-1,3-dimethyl-1H-pyrazol-4-ylsulfonyl)-2-oxopiperazin-1-yl)-3-cyclohexyl-N-(thiazol-2-yl)propanamide]	1580 to 2510 nM	97.1 to 107%
O=C(O)c1ccc(S(=O)(=O)N2CCN([C@@H](CC3CCCCC3)C(=O)Nc3nccs3)C(=O)C2)cc1 [Example 91, (S)-4-(4-(3-cyclohexyl-1-oxo-1-(thiazol-2-ylamino)propan-2-yl)-3-oxopiperazin-1-ylsulfonyl)benzoic acid]	≥ 3160 nM	≤ 74%
O=C(Nc1nccs1)[C@H](CC1CCCCC1)N1CCN(C(=S)NCCCN2CCOCC2)CC1=O [Example 118, (S)-3-cyclohexyl-2-(4-(3-morpholinopropylcarbamothioyl)-2-oxopiperazin-1-yl)-N-(thiazol-2-yl)propanamide]	1580 to 2510 nM	97.1 to 107%
